Results as given in ChEMBL document CHEMBL1201862, “PubChem BioAssay data set” (2004).
Blank lines part the entries; values can stand above or below the molecule they belong to. Calls of active or inactive are those of the source.

Assays:
Type in all cases: functional
[1] = molecular target: T1, Apoptotic protease-activating factor 1 (Homo sapiens, UniProt O14727); assay: SAR analysis of small molecule inhibitors of Apaf-1 in a Fluorescent assay.; settings: read-out: IC50_Mean
T1 sequence (O14727 whole entry): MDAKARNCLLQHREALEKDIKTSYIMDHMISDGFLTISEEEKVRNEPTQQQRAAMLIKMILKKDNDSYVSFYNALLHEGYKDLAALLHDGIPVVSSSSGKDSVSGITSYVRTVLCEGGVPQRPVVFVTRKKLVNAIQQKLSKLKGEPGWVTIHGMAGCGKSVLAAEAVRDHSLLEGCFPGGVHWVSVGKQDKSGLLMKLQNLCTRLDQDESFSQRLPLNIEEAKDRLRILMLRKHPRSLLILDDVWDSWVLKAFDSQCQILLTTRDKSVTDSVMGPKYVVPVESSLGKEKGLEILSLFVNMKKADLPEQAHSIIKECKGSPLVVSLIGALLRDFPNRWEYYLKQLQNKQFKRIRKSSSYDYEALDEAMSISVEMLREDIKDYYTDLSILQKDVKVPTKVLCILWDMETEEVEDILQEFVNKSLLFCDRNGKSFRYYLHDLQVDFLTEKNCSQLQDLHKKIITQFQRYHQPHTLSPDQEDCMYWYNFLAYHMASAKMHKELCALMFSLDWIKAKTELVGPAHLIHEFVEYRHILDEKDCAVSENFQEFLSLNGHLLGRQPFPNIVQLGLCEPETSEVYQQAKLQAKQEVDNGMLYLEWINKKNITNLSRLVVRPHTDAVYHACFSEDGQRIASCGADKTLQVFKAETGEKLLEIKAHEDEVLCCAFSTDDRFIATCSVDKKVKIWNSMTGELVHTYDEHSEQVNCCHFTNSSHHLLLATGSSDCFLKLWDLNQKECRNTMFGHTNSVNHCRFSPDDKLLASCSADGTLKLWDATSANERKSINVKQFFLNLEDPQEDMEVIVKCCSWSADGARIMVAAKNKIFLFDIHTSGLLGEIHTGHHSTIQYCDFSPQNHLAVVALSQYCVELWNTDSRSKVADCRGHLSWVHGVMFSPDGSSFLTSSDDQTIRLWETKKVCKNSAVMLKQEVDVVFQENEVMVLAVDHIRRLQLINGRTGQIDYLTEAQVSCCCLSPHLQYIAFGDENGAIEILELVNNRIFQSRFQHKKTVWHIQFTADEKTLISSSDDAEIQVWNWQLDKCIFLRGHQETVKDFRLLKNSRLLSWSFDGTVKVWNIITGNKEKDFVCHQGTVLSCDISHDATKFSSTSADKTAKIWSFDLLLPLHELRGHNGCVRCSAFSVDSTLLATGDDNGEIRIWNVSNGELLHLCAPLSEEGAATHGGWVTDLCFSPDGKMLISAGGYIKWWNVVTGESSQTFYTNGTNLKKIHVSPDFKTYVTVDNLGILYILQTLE

[2] = molecular target: Cyclin-dependent kinase 5 (Homo sapiens, UniProt Q00535);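 also: CDK5 measured as one member of a kinase profiling panel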
[3] = molecular target: Serine/threonine-protein kinase pim-3 (Homo sapiens, UniProt Q86V86);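 also: value obtained as one member of a broad kinase panel profiling effort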
[4] = molecular target: Mitogen-activated protein kinase kinase kinase kinase 5 (Homo sapiens, UniProt Q9Y4K4);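 also: measured as one member of a kinome-spanning kinase panel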
[5] = molecular target: Serine/threonine-protein kinase PAK 1 (Homo sapiens, UniProt Q13153)
[6] = molecular target: STE20-like serine/threonine-protein kinase (Homo sapiens, UniProt Q9H2G2)
[7] = molecular target: Serine/threonine-protein kinase Nek2 (Homo sapiens, UniProt P51955)
[8] = molecular target: Interleukin-1 receptor-associated kinase 4 (Homo sapiens, UniProt Q9NWZ3)
[9] = molecular target: RAC-gamma serine/threonine-protein kinase (Homo sapiens, UniProt Q9Y243)
LIM domain kinase 1 = LIM domain kinase 1 (Homo sapiens, UniProt P53667); assay: Navigating the Kinome. Panel member name: LIMK1
[10] = molecular target: Serine/threonine-protein kinase BRSK1 (Homo sapiens, UniProt Q8TDC3);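 also: measured within a kinome-wide kinase panel, with the target listed as KIAA1811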
[11] = molecular target: Serine/threonine-protein kinase TAO1 (Homo sapiens, UniProt Q7L7X3)
[12] = molecular target: Dual specificity tyrosine-phosphorylation-regulated kinase 1A (Homo sapiens, UniProt Q13627);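 also: measured against DYRK1A as one member of a broad kinome profiling panel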
[13] = molecular target: Serine/threonine-protein kinase D3 (Homo sapiens, UniProt O94806);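 also: determined within a kinase panel screen, with PRKCN as the panel member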
[14] = molecular target: MAP kinase-activated protein kinase 3 (Homo sapiens, UniProt Q16644);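 also: value comes from a kinome-wide profiling panel in which MAPKAPK3 is one of the panel members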
[15] = molecular target: Serine/threonine-protein kinase pim-1 (Homo sapiens, UniProt P11309)
[16] = molecular target: Serine/threonine-protein kinase MRCK alpha (Homo sapiens, UniProt Q5VT25)
[17] = molecular target: Serine/threonine-protein kinase DCLK1 (Homo sapiens, UniProt O15075);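 also: affinity for DCLK1 (listed as DCAMKL1) measured as one member of a kinome-wide kinase profiling panel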
[18] = molecular target: Mitogen-activated protein kinase kinase kinase kinase 4 (Homo sapiens, UniProt O95819)
[19] = molecular target: Rho-associated protein kinase 1 (Homo sapiens, UniProt Q13464);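 also: measured within a broad kinome-wide panel profiling many kinases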
[20] = molecular target: MAP kinase-interacting serine/threonine-protein kinase 2 (Homo sapiens, UniProt Q9HBH9)
[21] = molecular target: G protein-coupled receptor kinase 5 (Homo sapiens, UniProt P34947); assay: Navigating the Kinome. Panel member name: GPRK5
[22] = molecular target: Dual specificity tyrosine-phosphorylation-regulated kinase 3 (Homo sapiens, UniProt O43781);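 also: measured as one member of a broad kinase panel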
[23] = molecular target: Lymphokine-activated killer T-cell-originated protein kinase (Homo sapiens, UniProt Q96KB5);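 also: value comes from a kinase panel screen in which TOPK was one of the panel members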
[24] = molecular target: Protein kinase C gamma type (Homo sapiens, UniProt P05129)
[25] = HeLa 2N DNA content increase, dose response, cell-based, IC50 (AID 1117349)
[26] = molecular target: Testis-specific serine/threonine-protein kinase 2 (Homo sapiens, UniProt Q96PF2);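 also: part of the Navigating the Kinome panel, target entry STK22B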
[27] = molecular target: Eukaryotic elongation factor 2 kinase (Homo sapiens, UniProt O00418)
[28] = molecular target: Cell division cycle 7-related protein kinase (Homo sapiens, UniProt O00311);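 also: value obtained from a kinome-wide kinase panel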
[29] = molecular target: Dual specificity tyrosine-phosphorylation-regulated kinase 4 (Homo sapiens, UniProt Q9NR20)
[30] = HeLa 4N DNA content increase, dose response, cell-based, IC50 (AID 1117351)

Chain of MAP kinase-activated protein kinase 3 (Q16644 whole entry): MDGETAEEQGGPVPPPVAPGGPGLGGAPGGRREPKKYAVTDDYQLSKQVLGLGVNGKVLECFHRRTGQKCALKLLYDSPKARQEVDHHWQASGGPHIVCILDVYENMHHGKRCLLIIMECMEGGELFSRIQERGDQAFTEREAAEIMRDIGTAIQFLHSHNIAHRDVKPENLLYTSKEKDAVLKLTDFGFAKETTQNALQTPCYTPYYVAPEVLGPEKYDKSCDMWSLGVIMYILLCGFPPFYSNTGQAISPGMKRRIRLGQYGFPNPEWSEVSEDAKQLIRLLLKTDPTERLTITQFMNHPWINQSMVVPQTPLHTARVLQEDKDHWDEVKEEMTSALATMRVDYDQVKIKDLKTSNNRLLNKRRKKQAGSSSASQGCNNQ
Chain of Cyclin-dependent kinase 5 (Q00535 whole entry): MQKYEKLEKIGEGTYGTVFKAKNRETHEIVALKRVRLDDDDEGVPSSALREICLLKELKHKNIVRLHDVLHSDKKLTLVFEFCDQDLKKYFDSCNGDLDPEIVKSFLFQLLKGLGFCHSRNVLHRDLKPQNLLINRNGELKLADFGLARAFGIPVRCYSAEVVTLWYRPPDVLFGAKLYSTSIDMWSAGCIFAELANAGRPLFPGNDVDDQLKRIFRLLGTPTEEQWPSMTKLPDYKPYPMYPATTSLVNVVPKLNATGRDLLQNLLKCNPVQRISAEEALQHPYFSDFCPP
Chain of RAC-gamma serine/threonine-protein kinase (Q9Y243 whole entry, the tested form may be a part): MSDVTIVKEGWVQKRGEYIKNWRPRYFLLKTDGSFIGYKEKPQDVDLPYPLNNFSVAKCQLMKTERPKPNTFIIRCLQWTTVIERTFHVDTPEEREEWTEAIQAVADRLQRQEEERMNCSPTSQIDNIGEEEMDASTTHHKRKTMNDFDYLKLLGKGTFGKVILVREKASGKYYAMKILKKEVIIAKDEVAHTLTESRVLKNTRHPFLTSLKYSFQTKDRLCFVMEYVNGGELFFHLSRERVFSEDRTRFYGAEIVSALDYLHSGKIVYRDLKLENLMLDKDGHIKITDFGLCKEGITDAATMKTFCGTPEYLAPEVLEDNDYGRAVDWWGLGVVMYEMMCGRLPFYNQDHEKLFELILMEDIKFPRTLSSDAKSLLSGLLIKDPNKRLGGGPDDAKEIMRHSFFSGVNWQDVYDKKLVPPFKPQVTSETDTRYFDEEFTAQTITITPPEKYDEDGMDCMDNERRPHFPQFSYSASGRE
Chain of Serine/threonine-protein kinase BRSK1 (Q8TDC3 whole entry): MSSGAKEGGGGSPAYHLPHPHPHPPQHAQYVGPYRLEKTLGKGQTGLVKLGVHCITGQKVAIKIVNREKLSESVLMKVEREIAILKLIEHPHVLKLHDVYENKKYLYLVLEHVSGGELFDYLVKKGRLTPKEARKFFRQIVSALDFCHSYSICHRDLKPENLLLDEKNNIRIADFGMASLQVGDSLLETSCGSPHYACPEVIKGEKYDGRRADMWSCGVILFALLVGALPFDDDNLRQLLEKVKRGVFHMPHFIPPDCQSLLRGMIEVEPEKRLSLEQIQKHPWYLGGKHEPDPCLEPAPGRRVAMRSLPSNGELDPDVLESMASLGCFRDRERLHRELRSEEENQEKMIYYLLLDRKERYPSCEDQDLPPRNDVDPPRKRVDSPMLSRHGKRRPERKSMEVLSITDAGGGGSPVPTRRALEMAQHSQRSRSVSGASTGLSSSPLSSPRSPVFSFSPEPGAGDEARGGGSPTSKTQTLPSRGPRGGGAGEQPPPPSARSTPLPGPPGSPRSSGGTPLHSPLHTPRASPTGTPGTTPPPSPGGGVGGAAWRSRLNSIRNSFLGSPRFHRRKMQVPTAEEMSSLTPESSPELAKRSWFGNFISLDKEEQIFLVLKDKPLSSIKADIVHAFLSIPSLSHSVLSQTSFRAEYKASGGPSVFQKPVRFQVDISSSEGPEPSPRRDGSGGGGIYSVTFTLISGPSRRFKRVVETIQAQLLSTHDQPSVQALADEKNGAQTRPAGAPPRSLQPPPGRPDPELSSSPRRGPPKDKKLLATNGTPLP
Chain of Mitogen-activated protein kinase kinase kinase kinase 5 (Q9Y4K4 whole entry): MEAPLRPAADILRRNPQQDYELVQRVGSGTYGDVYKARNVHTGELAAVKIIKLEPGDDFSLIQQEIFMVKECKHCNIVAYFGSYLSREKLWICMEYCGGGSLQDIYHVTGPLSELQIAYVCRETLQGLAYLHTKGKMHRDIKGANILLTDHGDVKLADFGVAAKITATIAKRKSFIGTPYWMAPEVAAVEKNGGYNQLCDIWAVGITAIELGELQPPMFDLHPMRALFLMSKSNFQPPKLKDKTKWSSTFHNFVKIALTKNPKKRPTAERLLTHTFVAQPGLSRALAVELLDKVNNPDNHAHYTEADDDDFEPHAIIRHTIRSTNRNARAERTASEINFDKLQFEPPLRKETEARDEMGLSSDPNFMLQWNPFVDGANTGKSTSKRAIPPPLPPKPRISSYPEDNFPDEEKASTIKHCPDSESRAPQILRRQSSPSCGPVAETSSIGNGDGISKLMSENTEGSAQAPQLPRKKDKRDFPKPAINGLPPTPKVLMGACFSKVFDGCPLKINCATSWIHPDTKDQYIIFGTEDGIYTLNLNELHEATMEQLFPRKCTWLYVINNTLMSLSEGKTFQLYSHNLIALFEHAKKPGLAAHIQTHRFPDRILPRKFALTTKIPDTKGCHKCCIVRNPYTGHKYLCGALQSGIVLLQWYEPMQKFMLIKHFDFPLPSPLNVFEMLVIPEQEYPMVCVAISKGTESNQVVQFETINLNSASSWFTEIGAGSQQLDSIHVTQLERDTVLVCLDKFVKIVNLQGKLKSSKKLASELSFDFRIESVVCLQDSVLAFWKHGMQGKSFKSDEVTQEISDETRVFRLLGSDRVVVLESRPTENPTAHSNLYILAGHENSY
Chain of Serine/threonine-protein kinase MRCK alpha (Q5VT25 whole entry): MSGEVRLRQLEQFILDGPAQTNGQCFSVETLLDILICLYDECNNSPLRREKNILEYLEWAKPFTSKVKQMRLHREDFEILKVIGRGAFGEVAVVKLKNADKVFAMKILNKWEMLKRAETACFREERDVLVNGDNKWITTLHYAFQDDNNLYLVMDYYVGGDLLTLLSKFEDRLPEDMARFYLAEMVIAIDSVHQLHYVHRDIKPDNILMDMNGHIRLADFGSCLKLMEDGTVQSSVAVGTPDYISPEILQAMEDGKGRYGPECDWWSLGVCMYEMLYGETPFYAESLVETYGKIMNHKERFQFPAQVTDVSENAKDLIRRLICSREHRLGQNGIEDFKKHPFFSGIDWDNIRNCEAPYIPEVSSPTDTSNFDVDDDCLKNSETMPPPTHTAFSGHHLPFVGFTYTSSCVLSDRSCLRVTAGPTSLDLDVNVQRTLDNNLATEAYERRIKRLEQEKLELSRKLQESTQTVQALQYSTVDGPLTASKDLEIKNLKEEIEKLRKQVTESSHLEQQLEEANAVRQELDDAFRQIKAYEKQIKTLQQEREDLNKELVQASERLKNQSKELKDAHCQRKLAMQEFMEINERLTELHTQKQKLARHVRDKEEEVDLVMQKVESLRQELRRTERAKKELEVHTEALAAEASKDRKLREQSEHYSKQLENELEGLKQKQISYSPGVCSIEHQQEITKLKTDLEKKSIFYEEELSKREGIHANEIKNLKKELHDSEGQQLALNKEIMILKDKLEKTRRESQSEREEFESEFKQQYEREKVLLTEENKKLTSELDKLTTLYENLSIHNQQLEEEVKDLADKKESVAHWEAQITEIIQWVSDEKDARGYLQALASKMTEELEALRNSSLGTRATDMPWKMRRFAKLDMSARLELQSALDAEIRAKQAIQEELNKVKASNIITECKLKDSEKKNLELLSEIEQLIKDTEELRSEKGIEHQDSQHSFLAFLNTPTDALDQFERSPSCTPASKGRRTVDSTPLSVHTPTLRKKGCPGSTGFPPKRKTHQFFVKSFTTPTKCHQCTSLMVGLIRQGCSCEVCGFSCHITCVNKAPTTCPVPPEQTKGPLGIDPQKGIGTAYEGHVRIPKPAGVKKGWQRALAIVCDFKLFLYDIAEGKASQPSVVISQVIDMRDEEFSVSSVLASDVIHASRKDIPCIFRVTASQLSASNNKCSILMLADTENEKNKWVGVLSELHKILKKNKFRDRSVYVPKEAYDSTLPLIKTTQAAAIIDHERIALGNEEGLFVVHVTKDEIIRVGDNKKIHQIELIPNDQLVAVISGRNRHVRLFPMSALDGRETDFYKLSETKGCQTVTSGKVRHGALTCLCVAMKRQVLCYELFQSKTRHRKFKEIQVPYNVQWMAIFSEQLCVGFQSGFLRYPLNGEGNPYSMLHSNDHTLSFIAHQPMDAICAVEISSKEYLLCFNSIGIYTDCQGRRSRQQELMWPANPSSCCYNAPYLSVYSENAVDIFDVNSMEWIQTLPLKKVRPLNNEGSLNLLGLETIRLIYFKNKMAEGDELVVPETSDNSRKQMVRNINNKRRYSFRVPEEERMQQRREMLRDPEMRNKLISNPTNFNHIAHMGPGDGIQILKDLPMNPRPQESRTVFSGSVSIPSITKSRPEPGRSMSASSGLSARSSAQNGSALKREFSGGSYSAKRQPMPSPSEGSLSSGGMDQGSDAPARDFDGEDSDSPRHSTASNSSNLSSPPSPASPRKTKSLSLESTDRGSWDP

IC50 [1]: > 100 µM (inactive)
SMILES: Cc1ccc(-c2nc3cc(NC(=O)c4cccs4)ccc3[nH]2)o1

Ki [2]: > 10 µM (inactive)
Ki [3]: 1 µM (active)
Ki [4]: 6.31 µM (active)
Ki [5]: > 10 µM (inactive)
Ki [6]: > 10 µM (inactive)
Ki [7]: > 10 µM (inactive)
Ki [8]: > 10 µM (inactive)
Ki [9]: > 10 µM (inactive)
Ki (LIM domain kinase 1): > 10 µM (inactive)
Ki [10]: > 10 µM (inactive)
Ki [11]: > 10 µM (inactive)
Ki [12]: 6.31 µM (active)
Ki [13]: > 10 µM (inactive)
Ki [14]: > 10 µM (inactive)
Ki [15]: 1.58 µM (active)
Ki [16]: > 10 µM (inactive)
Ki [17]: > 10 µM (inactive)
Ki [18]: 3.98 µM (active)
Ki [19]: > 10 µM (inactive)
Ki [20]: 6.31 µM (active)
SMILES: COc1ccc(C=C2SC(=Nc3ccccc3)NC2=O)cc1OC

SMILES: Cc1nc(Nc2ncc(C(=O)Nc3c(C)cccc3Cl)s2)cc(N2CCN(CCO)CC2)n1 [DASATINIB]
Ki [21]: > 3.98 µM (inactive)
Ki [22]: 1.26 µM (active)
Ki [23]: > 10 µM (inactive)
Ki [24]: > 7.94 µM (inactive)
IC50 [25]: > 10 µM (inactive)
Ki [26]: > 1.58 µM (inactive)
Ki [14]: > 10 µM (inactive)
Ki [27]: > 3.98 µM (inactive)
Ki [28]: > 1.26 µM (inactive)
Ki [29]: > 7.94 µM (inactive)
IC50 [30]: > 10 µM (inactive)
